Measured values from patent US9834823B2, “Primers, assays and methods for detecting an E. coli subtype” (priority 2012, dated 2017).

Experiments:
Format in all cases: cell-based
[1] = system: Escherichia coli clinical isolates (ESBL-positive and ESBL-negative; ST131 subclones); test: Broth microdilution antimicrobial susceptibility, NorthShore ESBL case-control isolates; conditions: for No. of resistant isolates (column %), H30-Rx (N = 47): H30-Rx subclone isolates (N = 47) within the H30 ST131 subclone; for No. of resistant isolates (column %), H30, non-Rx (N = 15): H30 non-Rx isolates (N = 15) within the H30 ST131 subclone; for No. of resistant isolates (column %), H30 (N = 62): H30 subclone isolates (N = 62) among 71 E. coli ST131 isolates; for No. of resistant isolates (column %), Non-H30 (N = 9): non-H30 isolates (N = 9) among 71 E. coli ST131 isolates
Excerpt: As reported elsewhere, the 267 E. coli study isolates were collected between 2007 and 2010 as part of a prospective case-control study conducted at NorthShore University HealthSystem (Banerjee, R J et al. “Predictors and molecular epidemiology of community-onset extended-spectrum beta-lactamase (ESBL) Escherichia coli infection in a Midwestern community,” 2013 Infect Control Hosp Epidemiol; in press). Cases were defined as adults with ESBL-producing E. coli cultured from any specimen type. Controls were defined as the 1 or 2 patients with non-ESBL E. coli isolates identified just subsequent to the case isolate, and with the same specimen type and location of collection. Isolates obtained in the outpatient setting or within 48 hours of hospital admission were considered causes of community-associated infection. Further study details are as described (Banerjee, R J et al. “Predictors and molecular epidemiology of community-onset extended-spectrum beta-lactamase (ESBL) Escherichia coli infection in a Midwestern community,” 2013 Infect Control Hosp Epidemiol; in press).
The resistance score was the total number of agents to which an isolate was resistant. This study was approved by the NorthShore and VA Medical Center institutional review boards.

[2] = system: extraintestinal Escherichia coli isolates; test: Antimicrobial susceptibility testing (CLSI breakpoints), Olmsted County isolates; conditions: for Resistance prevalence among H30 ST131: H30 ST131 subclone, N = 70; for Resistance prevalence among non-H30 ST131: non-H30 ST131, N = 10
[3] = system: Escherichia coli clinical isolates from U.S. veterans; test: Susceptibility testing (broth microdilution or disk diffusion) at VAMCs with population back-calculations; conditions: for Prevalence of resistance, H30 ST131: H30 ST131 subclone isolates (H30 subclone vs. others); for Prevalence of resistance, ST131: ST131 isolates (ST131 vs. others); for Prevalence of resistance, Total (%): all isolates; for Estimated fraction due to ST131: fraction of resistance phenotype due to ST131; for Overall prevalence in population, %: resistance phenotype, back-calculated with 29% FQ resistance
[4] = ESBL-negative isolates, All N = 167
[5] = ESBL-negative isolates, Non-ST131 N = 145
[6] = ESBL-negative isolates, ST131 N = 22
[7] = ESBL-positive isolates, All N = 100
[8] = ESBL-positive isolates, Non-ST131 N = 51
[9] = ESBL-positive isolates, ST131 N = 49
[10] = all non-H30 isolates (H30 subclone vs. others)
[11] = all non-ST131 isolates (ST131 vs. others)
[12] = resistance prevalence among H30 ST131 subclone isolates relative to all other isolates
[13] = resistance prevalence among ST131 isolates relative to all other isolates

Compound: CC1(C)S[C@@H]2[C@H](NC(=O)[C@H](N)c3ccccc3)C(=O)N2[C@H]1C(=O)O [Ampicillin, ampicillin]
- No. resistant (column %) [1, 4]: 73 (44)
- No. resistant (column %) [1, 5]: 54 (37)
- No. resistant (column %) [1, 6]: 19 (86)
- No. resistant (column %) [1, 7]: 100 (100)
- No. resistant (column %) [1, 8]: 51 (100)
- No. resistant (column %) [1, 9]: 49 (100)
- No. of resistant isolates (column %), H30-Rx (N = 47) [1]: 46 (98) No. (column %)
- No. of resistant isolates (column %), H30, non-Rx (N = 15) [1]: 15 (100) No. (column %)
- No. of resistant isolates (column %), H30 (N = 62) [1]: 61 (98) No. (column %)
- No. of resistant isolates (column %), Non-H30 (N = 9) [1]: 7 (78) No. (column %)
- No. of resistant isolates (column %) ([2]; All isolates, N = 299): 156 (52)
- Resistance prevalence among H30 ST131 [2]: 81%
- No. of resistant isolates (column %) ([2]; Other STs, N = 129): 3 (41)
- No. of resistant isolates (column %) ([2]; ST9, N = 32): 13 (41)
- No. of resistant isolates (column %) ([2]; ST69, N = 15): 11 (73)
- No. of resistant isolates (column %) ([2]; ST73, N = 25): 10 (40)
- No. of resistant isolates (column %) ([2]; ST127, N = 18): 4 (22)
- No. of resistant isolates (column %) ([2]; ST131, N = 80): 65 (81)
- Resistance prevalence among non-H30 ST131 [2]: 80%
- Prevalence of resistance, H30 ST131 [3]: 76
- Prevalence of resistance, ST131 [3]: 77
- Prevalence of resistance, Total (%) [3]: 46%
- Prevalence of resistance, Others (%) [3, 10]: 36%
- Prevalence of resistance, Others (%) [3, 11]: 34%
- Estimated fraction due to ST131 [3]: .46
- Overall prevalence in population, % [3]: 46%
- Prevalence ratio of resistance [3, 12]: 2.1
- Prevalence ratio of resistance [3, 13]: 2.3

Compound: Cc1nnc(SCC2=C(C(=O)O)N3C(=O)[C@@H](NC(=O)Cn4cnnn4)[C@H]3SC2)s1 [Cefazolin, cefazolin]
- No. resistant (column %) [1, 4]: 10 (6)
- No. resistant (column %) [1, 5]: 9 (6)
- No. resistant (column %) [1, 6]: 1 (5)
- No. resistant (column %) [1, 7]: 99 (99)
- No. resistant (column %) [1, 8]: 51 (100)
- No. resistant (column %) [1, 9]: 48 (98)
- No. of resistant isolates (column %), H30-Rx (N = 47) [1]: 43 (91) No. (column %)
- No. of resistant isolates (column %), H30, non-Rx (N = 15) [1]: 5 (33) No. (column %)
- No. of resistant isolates (column %), H30 (N = 62) [1]: 48 (77) No. (column %)
- No. of resistant isolates (column %), Non-H30 (N = 9) [1]: 1 (11) No. (column %)
- No. of resistant isolates (column %) ([2]; All isolates, N = 299): 93 (31)
- Resistance prevalence among H30 ST131 [2]: 58%
- No. of resistant isolates (column %) ([2]; Other STs, N = 129): 30 (23)
- No. of resistant isolates (column %) ([2]; ST9, N = 32): 3 (9)
- No. of resistant isolates (column %) ([2]; ST69, N = 15): 5 (33)
- No. of resistant isolates (column %) ([2]; ST73, N = 25): 7 (28)
- No. of resistant isolates (column %) ([2]; ST127, N = 18): 3 (17)
- No. of resistant isolates (column %) ([2]; ST131, N = 80): 45 (57)
- Resistance prevalence among non-H30 ST131 [2]: 50%
- Prevalence of resistance, H30 ST131 [3]: 27
- Prevalence of resistance, ST131 [3]: 29
- Prevalence of resistance, Total (%) [3]: 17%
- Prevalence of resistance, Others (%) [3, 10]: 14%
- Prevalence of resistance, Others (%) [3, 11]: 12%
- Estimated fraction due to ST131 [3]: .47
- Overall prevalence in population, % [3]: 17%
- Prevalence ratio of resistance [3, 12]: 2.0
- Prevalence ratio of resistance [3, 13]: 2.3

Compound: CC(C)(O/N=C(\C(=O)N[C@@H]1C(=O)N2C(C(=O)[O-])=C(C[n+]3ccccc3)CS[C@H]12)c1csc(N)n1)C(=O)O [Ceftazidime]
- No. resistant (column %) [1, 4]: 1 (1)
- No. resistant (column %) [1, 5]: 1 (1)
- No. resistant (column %) [1, 6]: 0 (0)
- No. resistant (column %) [1, 7]: 92 (92)
- No. resistant (column %) [1, 8]: 47 (92)
- No. resistant (column %) [1, 9]: 45 (92)
- No. of resistant isolates (column %), H30-Rx (N = 47) [1]: 40 (85) No. (column %)
- No. of resistant isolates (column %), H30, non-Rx (N = 15) [1]: 4 (27) No. (column %)
- No. of resistant isolates (column %), H30 (N = 62) [1]: 44 (71) No. (column %)
- No. of resistant isolates (column %), Non-H30 (N = 9) [1]: 1 (11) No. (column %)

Compound: CO/N=C(\C(=O)N[C@@H]1C(=O)N2C(C(=O)O)=C(CSc3nc(=O)c(=O)[nH]n3C)CS[C@H]12)c1csc(N)n1 [Ceftriaxone, ceftriaxone]
- No. resistant (column %) [1, 4]: 1 (1)
- No. resistant (column %) [1, 5]: 1 (1)
- No. resistant (column %) [1, 6]: 0 (0)
- No. resistant (column %) [1, 7]: 98 (98)
- No. resistant (column %) [1, 8]: 51 (100)
- No. resistant (column %) [1, 9]: 47 (96)
- No. of resistant isolates (column %), H30-Rx (N = 47) [1]: 42 (89) No. (column %)
- No. of resistant isolates (column %), H30, non-Rx (N = 15) [1]: 4 (27) No. (column %)
- No. of resistant isolates (column %), H30 (N = 62) [1]: 46 (74) No. (column %)
- No. of resistant isolates (column %), Non-H30 (N = 9) [1]: 1 (11) No. (column %)
- No. of resistant isolates (column %) ([2]; All isolates, N = 299): 16 (6)
- Resistance prevalence among H30 ST131 [2]: 9%
- No. of resistant isolates (column %) ([2]; Other STs, N = 129): 8 (7)
- No. of resistant isolates (column %) ([2]; ST9, N = 32): 0
- No. of resistant isolates (column %) ([2]; ST69, N = 15): 0
- No. of resistant isolates (column %) ([2]; ST73, N = 25): 0
- No. of resistant isolates (column %) ([2]; ST127, N = 18): 0
- No. of resistant isolates (column %) ([2]; ST131, N = 80): 8 (11)
- Resistance prevalence among non-H30 ST131 [2]: 29%
- Prevalence of resistance, H30 ST131 [3]: 4
- Prevalence of resistance, ST131 [3]: 3
- Prevalence of resistance, Total (%) [3]: 2%
- Prevalence of resistance, Others (%) [3, 10]: 2%
- Prevalence of resistance, Others (%) [3, 11]: 2%
- Estimated fraction due to ST131 [3]: .43
- Overall prevalence in population, % [3]: 2%
- Prevalence ratio of resistance [3, 12]: 2.0
- Prevalence ratio of resistance [3, 13]: 1.9
